Measurements reported in article PMC8333053, “Synthesis and biological screening of new thiadiazolopyrimidine-based polycyclic compounds” (Scientific Reports, 2021).
≈ marks a conversion by molar mass, not a printed value.

Legend:
Bacillus cereus UW85 = experiment: Antibacterial MIC, two-fold serial dilution; type: cell-based; conditions: Gram +ve bacteria, LB broth, 37°C, 24 h, visual (no turbidity), read-out: MIC B. cereus
Method: (§1) The antimicrobial activity of the synthesized thiadiazolopyrimidine compounds was studied toward diverse pathogenic strains, such as gram-positive bacteria (Staphylococcus aureus ATCC 29213 and Bacillus cereus UW85), gram-negative bacteria (Escherichia coli ATCC 12435 and Pseudomonas aeruginosa ATCC 29260), and fungi (Candida albicans and Aspergillus fumigatus 293). The assessment was performed through the two-fold dilution technique using Ampicillin (antibacterial) and Fluconazole (antifungal) as the reference drugs[28],[29]. The minimal inhibitory concentration (MICs, µg/mL) of the synthesized derivatives for prohibiting microbial growth was determined through the visual detection (no turbidity) technique.
(§2) The synthesized thiadiazolopyrimidine-based compounds were evaluated and adopted for antibacterial and antifungal effectiveness using the approved procedure[38],[39].
(§3) Minimal inhibitory concentrations (MICs) were determined by serial dilution technique using 96-multiwell microtiter plates. The investigated compounds were dissolved in DMSO 100% to prepare stock solutions of 5000 µg/mL. Two-fold serial dilutions of the dissolved compounds were performed in LB broth providing eight different concentrations (1250, 625, 312.5, 156, 78, 39, 19.5 µg/mL). Overnight cultures of microorganisms were diluted to 1 ×10^6 CFU/mL in LB broth, and 20 mL of the diluted cultures were added to the test solutions (50 mL) in the wells (one well per concentration per bacterial strain). The plates were incubated at 37°C for 24 h. MIC was detected visually as the least concentration inhibiting bacterial growth (no turbidity) and the activity of the tested compounds was estimated in comparison to ampicillin.

[1] = tested on: Escherichia coli ATCC 12435; experiment: Antibacterial MIC, two-fold serial dilution; type: cell-based; conditions: ATCC12435, Gram −ve bacteria, LB broth, 37°C, 24 h, visual (no turbidity)
Method: as §1, §2, §3

[2] = tested on: Pseudomonas aeruginosa ATCC 29260; experiment: Antibacterial MIC, two-fold serial dilution; type: cell-based; conditions: ATCC29260, Gram −ve bacteria, LB broth, 37°C, 24 h, visual (no turbidity), read-out: MIC P. aeruginosa
Method: as §1, §2, §3

[3] = tested on: Staphylococcus aureus ATCC 29213; experiment: Antibacterial MIC, two-fold serial dilution; type: cell-based; conditions: ATCC29213, Gram +ve bacteria, LB broth, 37°C, 24 h, visual (no turbidity), read-out: MIC S. aureus
Method: as §1, §2, §3

[4] = tested on: Aspergillus fumigatus 293; experiment: Antifungal MIC, two-fold serial dilution; type: cell-based; conditions: Fungi, glucose minimal medium, 30°C, 48 h, visual (no turbidity)
Method: as §1, §2
(§4) Minimal inhibitory concentrations (MICs) were determined by serial dilution technique using 96-multiwell microtiter plates. The investigated compounds were dissolved in DMSO 100% to prepare stock solutions of 5000 µg/mL. Two-fold serial dilutions of the dissolved compounds were performed in glucose minimal medium providing eight different concentrations (1250, 625, 312.5, 156, 78, 39, 19.5 µg/mL). The microorganisms were diluted to 1 ×10^3 SFU/mL in glucose minimal medium, and 20 µL of the diluted culture was added to the test solutions (50 µL) in the wells (one well per concentration). The plates were incubated at 30°C for 48 h. MIC was detected visually as the least concentration inhibiting fungal growth (no turbidity) and the activity of the tested compounds was estimated in comparison to fluconazole.

Candida albicans = experiment: Antifungal MIC, two-fold serial dilution; type: cell-based; conditions: Fungi, glucose minimal medium, 30°C, 48 h, visual (no turbidity)
Method: as §1, §2, §4

[5] = MTT cytotoxicity assay on normal cells; type: cell-based; conditions: human, WI38 normal fibroblast cells
Method: The cytotoxicity of the prepared tri-and tetra-cyclic thiadiazolopyrimidine compounds were examined toward various cancer cell lines, such as liver and breast cancer (MCF-7), prostate cancer (PC3), laryngeal carcinoma (Hep-2), carcinoma (HepG2), and standard normal fibroblast cells (WI38) using the MTT assay[33] at the National Research Centre (Egypt). The cytotoxicity (Table 3) toward 50% inhibition of the cell viability (IC50 values) was assessed using 5-fluorouracil (5-Fu) as the standard anticancer drug.
The synthesized compounds were subjected to the MTT cytotoxicity assay on the basis of the cited literature.
MTT cytotoxicity assay: The technical method of MTT assay depends on the reduction of yellow 3-(4,5-methyl-2-thiazolyl)-2,5-diphenyl-2H-tetrazolium bromide (MTT) into purple formazan product, mainly by mitochondrial reductase activity inside the living cells. The cells used in cytotoxicity assay were cultured in RPMI 1640 medium supplemented with 10% fetal calf serum. Cells suspended in the medium (2×10^4 cells/mL) were plated in 96-well culture plates and incubated at 37 °C in a 5% CO2 incubator for 12 hours. The tested sample (2 μL) was added to the cells (2×10^4) in 96-well plates and cultured at 37 °C for 3 days. The cultured cells were mixed with 20 μL of MTT solution and incubated for 4 hours at 37 °C. The supernatant was carefully removed from each well, the formazan crystals were dissolved after addition of DMSO (100 μL) for each well to form the cellular reduction of MTT. After mixing with a mechanical plate mixer, the absorbance of each well was measured by a microplate reader using a test wavelength of 570 nm. The results were expressed as the IC50 values, which inducing 50% inhibition of cell growth of the treated cells when compared to the growth of control cells.

DNA = experiment: Bleomycin-dependent DNA damage; type: biochemical; conditions: test sample 0.1 mg/mL, λ = 532 nm; mean of three replicates ± SD; ascorbic acid 0.24 mM
Source text: Bleomycin-dependent DNA damage. The prepared polycyclic thiadiazolopyrimidine-based compounds were examined through the bleomycin-dependant DNA damage, and the results were compared to that of ascorbic acid as a positive control. The obtained data reflected the ability of these derivatives to protect the DNA from damage. The capability of compounds 16a–b and 17a–b to manifest the best protective effect against DNA damage was indicated by the corresponding absorbance values ranging from 0.031 to 0.053 (Table 4)[35],[36].
Bleomycin-dependent DNA damage experiment: To a mixture of 0.5 mg / mL of DNA, 5 mM magnesium chloride, 50 mM ferric chloride and 0.05 mg / mL bleomycin sulfate was prepared. The test sample was prepared at a concentration of 0.1 mg / mL and added to the mixture. After incubation of the mixture for one hour at 37 °C, 0.05 mL of EDTA (0.1 M) was added to terminate the reaction. In the next step, 0.5 mL of TBA (1% w / v) and 0.5 mL of HCl (25% v / v) were added for colour development and the mixture was heated for 10 minutes at 80 °C. The mixture was centrifuged and the absorbance expressed, the amount of damage to the DNA was measured at λ = 532 nm. L-Ascorbic acid (0.24 mM) was used as a positive control.

| SMILES | MIC (Bacillus cereus UW85) [µg/mL] | MIC [1] [µg/mL] | MIC [2] [µg/mL] | MIC [3] [µg/mL] | MIC [4] [µg/mL] | MIC (Candida albicans) [µg/mL] | IC50 at 3 days [5] [µM] | Absorbance (bleomycin-dependent DNA damage) (DNA) | melting point [°C] |
| --- | --- | --- | --- | --- | --- | --- | --- | --- | --- |
| CC(=O)C1=C(C)OC(N)=C2C(=O)N=C3SC=NN3C12 (stereo not shown) [Compound 8a, 9-Acetyl-6-amino-8-methyl-5H,9aH-pyrano[3,4-e][1,3,4]thiadiazolo[3,2-a]pyrimidin-5-one] | 625 (≈ 2.25 mM) | 1250 (≈ 4.49 mM) | 1250 (≈ 4.49 mM) | 312 (≈ 1.12 mM) | > 1250 | 312 (≈ 1.12 mM) | 27.5 ± 0.6 | 0.078 ± 0.13 |  |
| Cc1nn(-c2ccccc2)c2c1C1C(=C(N)O2)C(=O)N=C2SC=NN21 (stereo not shown) [Compound 10b, 6-Amino-10-methyl-8-phenyl-8,10b-dihydro-5H-pyrazolo[4′,3′:5,6]pyrano[3,4-e][1,3,4]thiadiazolo[3,2-a]pyrimidin-5-one] | 625 (≈ 1.77 mM) | 312 (≈ 0.887 mM) | 625 (≈ 1.77 mM) | 625 (≈ 1.77 mM) | > 1250 | > 1250 | 25.4 ± 0.62 | 0.119 ± 0.13 | 266 to 267 |
| COc1ccc(N=Nc2c(O)nn3c(N)c4c(=O)nc5scnn5c4nc23)cc1 [Compound 17b, 6-Amino-9-hydroxy-10-(4-methoxyphenylazo)-5H-pyrazolo[1′,5′:1,2]pyrimido[5,4-e][1,3,4]thiadiazolo[3,2-a]pyrimidin-5-one] | 625 (≈ 1.53 mM) | 19.5 (≈ 0.0476 mM) | 39 (≈ 0.0953 mM) | 1250 (≈ 3.05 mM) | 1250 (≈ 3.05 mM) | 1250 (≈ 3.05 mM) | 58.4 ± 2.29 | 0.042 ± 0.03 | 280 to 281 |
| Nc1n[nH]c2c1c(=O)nc1scnn12 [Compound 4, 3-Aminopyrazolo[4,3-e][1,3,4]thiadiazolo[3,2-a]pyrimidin-4(1H)-one] | > 1250 | > 1250 | > 1250 | 1250 (≈ 6 mM) | > 1250 | > 1250 | 9.35 ± 0.21 | 0.165 ± 0.19 | 281 to 282 |
| Cc1n[nH]c2c1C1C(=C(N)O2)C(=O)N=C2SC=NN21 (stereo not shown) [Compound 10a, 6-Amino-10-methyl-8,10b-dihydro-5H-pyrazolo[4′,3′:5,6]pyrano[3,4-e][1,3,4]thiadiazolo[3,2-a]pyrimidin-5-one] | 625 (≈ 2.26 mM) | 1250 (≈ 4.52 mM) | 312 (≈ 1.13 mM) | 625 (≈ 2.26 mM) | > 1250 | 625 (≈ 2.26 mM) | 23.3 ± 0.6 | 0.098 ± 0.07 |  |
| Nc1c2c(=O)nc3scnn3c2nc2nncn12 [Compound 12, 6-Amino-5H-[1,2,4]triazolo[4′,3′:1,2]pyrimido[5,4-e][1,3,4]thiadiazolo[3,2-a]pyrimidin-5-one] | > 1250 | > 1250 | > 1250 | 625 (≈ 2.4 mM) | > 1250 | > 1250 | 17.7 ± 0.71 | 0.107 ± 0.08 | 290 to 291 |
| CC1=C(C#N)C2C(=C(N)O1)C(=O)N=C1SC=NN12 (stereo not shown) [Compound 9a, 6-Amino-9-cyano-8-methyl-5-oxo-5H,9aH-pyrano[3,4-e][1,3,4]thiadiazolo[3,2-a]pyrimidine] | 312 (≈ 1.2 mM) | 625 (≈ 2.39 mM) | 625 (≈ 2.39 mM) | 312 (≈ 1.2 mM) | > 1250 | 312 (≈ 1.2 mM) | 36.12 ± 0.28 | 0.064 ± 0.06 | 264 to 265 |
| N#Cc1c(N)nc(N)c2c(=O)nc3scnn3c12 [Compound 6, 6,8-Diamino-9-cyano-5-oxo-5H-pyrido[3,4-e][1,3,4]thiadiazolo[3,2-a]pyrimidine] | 1250 (≈ 4.82 mM) | > 1250 | 1250 (≈ 4.82 mM) | > 1250 | > 1250 | > 1250 | 14.1 ± 0.36 | 0.135 ± 0.14 | 302 to 303 |
| N#Cc1cn2ncsc2nc1=O [Compound 3, 6-cyano-7-oxo-7H-[1,3,4]thiadiazolo[3,2-a]pyrimidine] | > 1250 | > 1250 | > 1250 | 1250 (≈ 7.02 mM) | > 1250 | > 1250 | 7.82 ± 1.33 | 0.281 ± 0.22 | 264 to 265 |
| Nc1c2c(=O)nc3scnn3c2nc2nnnn12 [Compound 11, 6-Amino-5H-[1,3,4]thiadiazolo[2′,3′:2,3]pyrimido[4,5-d]tetrazolo[1,5-a]pyrimidin-5-one] | 1250 (≈ 4.79 mM) | > 1250 | 1250 (≈ 4.79 mM) | 312 (≈ 1.2 mM) | > 1250 | 1250 (≈ 4.79 mM) | 20.2 ± 0.39 | 0.113 ± 0.16 | 274 to 275 |
| Cc1ccc(N=Nc2c(O)nn3c(N)c4c(=O)nc5scnn5c4nc23)cc1 [Compound 17a, 6-Amino-9-hydroxy-10-(4-methylphenylazo)-5H-pyrazolo[1′,5′:1,2]pyrimido[5,4-e][1,3,4]thiadiazolo[3,2-a]pyrimidin-5-one] | 625 (≈ 1.59 mM) | 156 (≈ 0.397 mM) | 156 (≈ 0.397 mM) | 625 (≈ 1.59 mM) | 1250 (≈ 3.18 mM) | > 1250 | 57.9 ± 1.18 | 0.053 ± 0.05 | 264 to 265 |
| Cc1ccc(N=Nc2c(N)nn3c(N)c4c(=O)nc5scnn5c4nc23)cc1 [Compound 16a, 6,9-Diamino-10-(4-methylphenylazo)-5H-pyrazolo[1′,5′:1,2]pyrimido[5,4-e][1,3,4]thiadiazolo[3,2-a]pyrimidin-5-one] | > 1250 | 78 (≈ 0.199 mM) | 156 (≈ 0.398 mM) | 1250 (≈ 3.19 mM) | > 1250 | > 1250 | 60.1 ± 2.41 | 0.039 ± 0.07 | > 320 |
